pIC50: −log10 of the molar value.
How the values were obtained:
[1] = system: automated midbrain organoids (AMOs); assay: Dose-response analysis, ATP-based overall AMO viability; format: cell-based, human; conditions: 0.01-1,000 μM, 48 h + 6 days; viability, Map2 and TH readouts
Experimental: AMOs were cultured as described above for 47 days. On day 47, we exchanged their medium to tox medium (TM), initially without the addition of any compounds. […] For each compound, we included n = 8 controls per compound treated with the corresponding solvent at an amount equivalent to the highest compound concentration. To assess viability and cell type-specific toxicity in parallel and under the same conditions, we treated all samples with the compounds for 48 h, then exchanged their medium to standard culture medium without compounds and maintained them for an additional 6 days before analysis to allow breakdown and removal of cellular debris. Organoid viability and cell type-specific toxicity were analyzed as described for the primary screens. Here, we acquired five confocal planes spaced 36.6 μm apart in our Operetta high content imager. The image analysis of the AMOs for cell type-specific toxicity assessment required minor adjustments to account for the individual properties of the staining. […] For Map2, we performed Gaussian smoothing with a width of 10 px and omitted the additional sliding parabola filter. The other steps were performed as outlined for the primary cell-type-specific toxicity screen. […] In detail: The dose-response series, including the individual solvent controls, was performed for every compound on a separate 96-well plate of AMOs with initially n = 8 organoids per concentration. […] Data processing, including normalizations, was performed for each individual compound/plate as outlined above for the primary screens. Significant differences between the Map2 and TH content were also determined in GraphPad Prism as described for the primary screen and with the same parameters (multiple comparisons were performed for the different concentrations instead of compounds).

[2] = system: TH+ dopaminergic and Map2+ general neurons in AMOs; assay: Dose-response analysis, TH and Map2 content by high content imaging; format: cell-based, human; conditions: 48 h + 6 days
Experimental: All processing steps were conducted in an HTS-compatible automated liquid handling system (ALHS, a Biomek FXP liquid handling station). To quantify different cellular subpopulations within the AMOs, we employed our previously described (Renner et al., [2020], [2021b]) ALHS-compatible workflow for combined whole-mount staining and clearing, with minor modifications. We fixed the AMOs with 4% PFA (VWR) for 10–15 min and stained the entire aggregates with primary and secondary antibodies for 6 days each. The antibodies used in this study were as follows. Primary: mouse anti-Map2 (1:1,000, Merck Millipore, cat#: MAB3418) and rabbit anti-TH (1:500, Abcam, cat#: ab112). Secondary: donkey anti-mouse IgG, Alexa Fluor 488 conjugated (1:1,000, Thermo Fisher, cat#: A-21202) and donkey anti-rabbit IgG, Alexa Fluor 647 conjugated (1:1,000, Thermo Fisher, cat#: A-31573). The antibodies were diluted in blocking and permeabilization solution consisting of 6% BSA, 0.5% Triton-X 100 (Roth), 0.1% (w/v) sodium azide (Sigma-Aldrich) in PBS (Sigma-Aldrich) and immediately added after fixation following a triple rinse with PBS. We renewed the antibody solutions once after three days. As a nuclear counter stain, we added DAPI (1 μg/ml, Sigma-Aldrich) to the solution containing the secondary antibodies. Between primary and secondary antibody application and after finishing the secondary antibody incubation, we washed the samples overnight with 0.1% Triton X-100 in PBS, with a total of five exchanges of the washing solution. After the whole-mount staining, we performed BABB-based tissue clearing (Dent et al., [1989]) to allow image acquisition with single-cell resolution of the entire aggregates. For this purpose, we first dehydrated the AMOs via a stepwise methanol (Roth) series (25%, 50%, 70%, 90%, and 100%, each for 15 min). For clearing and imaging, we transferred them to organic solvent-resistant cyclo-olefin 96-well flat-bottom plates (“Screenstar”, Greiner Bio-One). Finally, we incubated the samples for 30 min in 1:1 (v/v) methanol/BABB (BABB consisted of benzyl alcohol (Sigma-Aldrich) and benzyl benzoate (Sigma-Aldrich) at a 1:1 (v/v) ratio) and then kept them in 100% BABB in the dark for storage and subsequent automated high content confocal fluorescent analysis.
We prepared and treated the AMOs with the compounds as described for the primary viability screen. On day 50, after 48 h of compound incubation, we replaced the medium with standard AMO medium and maintained the AMOs for 6 additional days under standard culture conditions. This additional time allows the cells killed by the compounds to be cleared from the aggregates. After the 6 days, we fixed the organoids with 4% PFA, whole-mount-stained them for TH and Map2, and tissue-cleared them as described above. To achieve uniform aggregate positioning within the wells before imaging, we tilted the plates off the horizontal plane at 60 degrees for a minimum of 5 min. We performed automated image acquisition of entire 96-well plates on an Operetta high content imager (Perkin Elmer) and analyzed images in the Harmony 4.1 software and/or Columbus version 2.6.0 as previously described (Renner et al., [2020]), with adjustments to account for the individual properties of the staining and samples. We acquired three medial planes for each organoid, spaced 36.6 μm apart to avoid double-sampling individual morphological features. For the analysis, we defined the organoid region in each image by summing all channels, removed small localized features with a median filter (10 px), and identified putative organoids/regions of interest (ROIs) with the “find image region” function. To identify bona fide AMOs and exclude image artifacts and dust, we selected the ROIs with an area >9,000 μm^2, roundness >0.4, and mean DAPI intensity >190 arbitrary brightness units (abu).

[3] = system: automated midbrain organoids (AMOs); assay: Primary organoid viability screen (ATP-based CellTiter-Glo 3D); format: cell-based, human; conditions: approx. 100 μM, 48 or 96 h, two AMO lines
Experimental: We cultured AMOs for 47 days in our automated system as described above. On day 47, we exchanged the organoid medium to a minimal tox medium (TM, consisting of DMEM/F-12 with 1% N2 supplement and 1% penicillin/streptomycin/glutamine) to reduce possible interference from antioxidants in the B27 media supplement. The next day, we treated the AMOs with the compounds from the library at a concentration of 100 μM in TM with some deviations due to solubility (see Supplementary Table 1 for a complete list of compounds including their final concentrations in the screen). DMSO control samples contained 0.5% (v/v) DMSO, which is equivalent to the amount of solvent in the samples that received compound treatment. After 48 h of incubation with the compounds, we either directly processed the organoids for the 48-h time point or renewed the compounds in TM once to achieve 96 h of incubation. […] We recorded the luminescence immediately after the transfer using a Synergy Mx plate reader (BioTek). […]
In detail: All compounds including their controls were arrayed on a single 96-well plate (see Supplementary Table 1 for well positions), and replicated across three plates for a total of n = 3 replicates per condition (except AMO line 2 at 48 h n = 2). […] During our analysis, we first averaged the two technical replicates from the luminescence measurement in Microsoft Excel, yielding one averaged luminescence value for each well of the original 96-well AMO plates. Then, we normalized the luminescence detected in each well to the mean luminescence of the four DMSO controls of the same plate to get a relative organoid viability value. Normalization was performed separately for each plate to account for and correct for potential differences during the luminescence measurements. […] We further assessed the homogeneity of the AMOs by calculating the coefficient of variation (CV) for the relative viabilities of the DMSO controls (i.e., we divided the standard deviations by the corresponding means and averaged the resulting CV values for the DMSO controls). […]

[4] = system: automated midbrain organoids (AMOs); assay: Viability of 3D AMOs (CellTiter-Glo 3D) in the 2D vs 3D comparison; format: cell-based, human; conditions: for pIC50: Homo sapiens, 48 h exposure from day 50
Experimental: We cultured AMOs for 47 days in our automated system as described above. On day 47, we exchanged the organoid medium to a minimal tox medium (TM, consisting of DMEM/F-12 with 1% N2 supplement and 1% penicillin/streptomycin/glutamine) to reduce possible interference from antioxidants in the B27 media supplement. The next day, we treated the AMOs with the compounds from the library at a concentration of 100 μM in TM with some deviations due to solubility (see Supplementary Table 1 for a complete list of compounds including their final concentrations in the screen). DMSO control samples contained 0.5% (v/v) DMSO, which is equivalent to the amount of solvent in the samples that received compound treatment. After 48 h of incubation with the compounds, we either directly processed the organoids for the 48-h time point or renewed the compounds in TM once to achieve 96 h of incubation. Following either 48 or 96 h of compound incubation, we used the CellTiter-Glo 3D cell viability assay (Promega) to measure the viability of individual organoids, as previously described (Renner et al., [2020]). Briefly, the 96-well plates of AMOs and the reagents were brought to room temperature for 30 min. We adjusted the media volume of each well to 55 μl and added an equal volume (55 μl) of the CellTiter-Glo 3D reagent. Next, the samples were shaken on a Thermomixer (Eppendorf) at 900 rpm for 5 min and then incubated for 25 min at room temperature while protected from light. To minimize signal cross-talk between adjacent wells, we transferred the contents of the clear 96-well culture plates to white/opaque 384-well Lumitrac plates (Greiner) with two technical replicates (20 μl each) per sample, after the incubation. We recorded the luminescence immediately after the transfer using a Synergy Mx plate reader (BioTek). We outputted the results to Microsoft Excel for reformatting and then transferred them to GraphPad Prism v9.0.1 (Graphpad Software, Inc.) for plotting and statistical analysis.
To compare the toxic effects of compounds on AMOs and 2D-cultured midbrain dopaminergic neurons, we seeded and cultured both in parallel and generated them from the same smNPC starting cell population. For 2D dopaminergic neuron differentiation, smNPCs were seeded in 1% (v/v in KO-DMEM/F-12) Matrigel-coated 6-well plates and standard smNPC medium, following digestion by accutase as described above. From day 2 onwards, they were treated identically with the AMOs (i.e., they received the same media at the same timepoints). To work with the 2D dopaminergic neurons in a screening setting (and have the same plate format as the AMOs), we reseeded them to flat-bottom 96-well plates (“μCLEAR”, black, Greiner) at a density of 70,000 cells/well on day 48. On day 49, the medium of both 2D mDA neurons and 3D AMOs was exchanged to tox medium. The next day, we treated them with different concentrations (0.01, 0.1, 1, 10, 50, 100, 200, 500, and 1,000 μM; controls received the corresponding solvent at an amount equivalent to the highest compound concentration; n = 6 per concentration) of the compounds lindane (Sigma-Aldrich, in ethanol) and 6-hydroxydopamine hydrochloride (Sigma Aldrich, in DMSO) in tox medium. After 48 h of incubation, we measured the samples’ viability. For the AMOs, we used the CellTiter-Glo 3D cell viability assay as described above. We measured the 2D mDA neuron viability with the CellTiter-Glo 2.0 cell viability assay (Promega) according to the manufacturer’s instructions. In short, we brought the sample plates and reagents to room temperature for 30 min. We adjusted the media volume of the samples to 50 μl and added an equal volume (50 μl) of the CellTiter-Glo 2.0 reagent. We let the plate shake for 2 min at 900 rpm on a Thermomixer and then incubated them for 10 min at room temperature and protected from light. Immediately afterward, we measured the luminescence on a Synergy Mx plate reader. […]

[5] = system: 2D cultured dopaminergic neurons; set-up: method as in Sharma et al., 2010; conditions: ref Sharma et al., 2010; cited from earlier work
[6] = system: 2D-cultured midbrain dopaminergic (mDA) neurons; assay: Viability of 2D-cultured mDA neurons (CellTiter-Glo 2.0) in the 2D vs 3D comparison; format: cell-based; conditions: Homo sapiens, Neuron, 2D mDA neurons, 48 h exposure from day 50
Experimental: To compare the toxic effects of compounds on AMOs and 2D-cultured midbrain dopaminergic neurons, we seeded and cultured both in parallel and generated them from the same smNPC starting cell population. For 2D dopaminergic neuron differentiation, smNPCs were seeded in 1% (v/v in KO-DMEM/F-12) Matrigel-coated 6-well plates and standard smNPC medium, following digestion by accutase as described above. From day 2 onwards, they were treated identically with the AMOs (i.e., they received the same media at the same timepoints). To work with the 2D dopaminergic neurons in a screening setting (and have the same plate format as the AMOs), we reseeded them to flat-bottom 96-well plates (“μCLEAR”, black, Greiner) at a density of 70,000 cells/well on day 48. On day 49, the medium of both 2D mDA neurons and 3D AMOs was exchanged to tox medium. The next day, we treated them with different concentrations (0.01, 0.1, 1, 10, 50, 100, 200, 500, and 1,000 μM; controls received the corresponding solvent at an amount equivalent to the highest compound concentration; n = 6 per concentration) of the compounds lindane (Sigma-Aldrich, in ethanol) and 6-hydroxydopamine hydrochloride (Sigma Aldrich, in DMSO) in tox medium. After 48 h of incubation, we measured the samples’ viability. For the AMOs, we used the CellTiter-Glo 3D cell viability assay as described above. We measured the 2D mDA neuron viability with the CellTiter-Glo 2.0 cell viability assay (Promega) according to the manufacturer’s instructions. In short, we brought the sample plates and reagents to room temperature for 30 min. We adjusted the media volume of the samples to 50 μl and added an equal volume (50 μl) of the CellTiter-Glo 2.0 reagent. We let the plate shake for 2 min at 900 rpm on a Thermomixer and then incubated them for 10 min at room temperature and protected from light. Immediately afterward, we measured the luminescence on a Synergy Mx plate reader. We outputted the results to Microsoft Excel and GraphPad Prism v9.0.1 for reformatting, plotting, and analysis. Data processing was performed as outlined for the CellTiter-Glo 3D-based viability assay above, except for the averaging of technical replicates, as measurements were performed directly in the culture plate without additional technical replicates.
All other data analysis steps including the statistical analysis to identify significant differences in toxicity between 2D and 3D (via multiple unpaired t-tests with the same parameters as above, corrected for using the Bonferroni-Dunn method, and considering padj <0.05 as significant), as well as dose-response curve fitting, were performed as described in detail above. The IC50 values were taken from the same regression/analysis as the dose-response curves.

[7] = 0.01-1,000 μM (rotenone up to 100 μM), both AMO lines

| Compound | overall toxicity in the dose-response experiments [1] | Map2 content (general neurons) [2, 7] | TH content (dopaminergic neurons) [2, 7] | TH levels compared to Map2 levels ([2]; dose-response, padj < 0.05) | toxicity in the primary screens [3] | concentrations with significant 2D vs 3D viability difference ([4]; AMO line 1, 48 h) [µM] | concentrations with significant 2D vs 3D viability difference ([4]; AMO line 2, 48 h) [µM] | pIC50 ([4]; AMO line 1, 3D) | pIC50 ([4]; AMO line 2, 3D) | toxicity in 3D AMOs compared with 2D-cultured dopaminergic neurons ([4]; both cell lines, 48 h, 0.01-1,000 μM, padj < 0.05) | toxicity of lindane alone [5] | pIC50 ([6]; AMO line 1 cell line) | pIC50 ([6]; AMO line 2 cell line) |
| --- | --- | --- | --- | --- | --- | --- | --- | --- | --- | --- | --- | --- | --- |
| O=C1C2CC=CCC2C(=O)N1SC(Cl)(Cl)Cl (centres unmarked) [captan] | intermediate compared to ASS and the more toxic compounds | reduced | reduced | significantly reduced TH levels compared to Map2 over a broad range of concentrations | intermediate toxicity |  |  |  |  |  |  |  |  |
| Cl[C@H]1[C@H](Cl)[C@@H](Cl)[C@@H](Cl)[C@H](Cl)[C@H]1Cl [lindane] |  |  |  |  | strong possible toxicity | ≥ 200 | 200 | 3.89 | 3.89 | significantly more toxic in AMOs than in the 2D-cultured dopaminergic neurons | only mild toxicity | 3.70 | 3.70 |

— publication PMC8321240, “Cell-Type-Specific High Throughput Toxicity Testing in Human Midbrain Organoids” (Frontiers in Molecular Neuroscience, 2021)
